Measurements taken from US6814952B2, “Diagnostic imaging agent useful for selecting a therapy for cancerous bone metastasis” (Nihon Medi-Physics Co., Ltd., priority 2001, dated 2004).

Assays:
osteoblast = assay: Uptake by osteoblast (cellular uptake experiment); assay type: cell-based, mouse
Text: (§1) Osteoblast was isolated from the parietal bone of a newborn mouse by means of stepwise enzyme digestion according to a method described by Takahashi et al. (Takahashi et al., Endocrinology, 123: 2600-2602 (1988)), and cultured using α-MEM (10% fetal calf serum) for 6 to 8 days for use in the following experiments. Furthermore, osteoclast was obtained by co-culturing osteoblastic cells and bone marrow cells for 6 to 8 days using α-MEM (10% fetal calf serum, 10^−8 M vitamin D3, pH 6.2) on a collagen-coated dish according to a method described by Takahashi et al. (Takahashi et al., Endocrinology, 122: 1373-1382 (1988)). The osteoclast was identified by means of tartaric acid-resistant acidic phosphatase dyeing.
Experiment of uptake by cells: The osteoblast or the co-cultured osteoclast was isolated using 35% Percoll and incubated using α-MEM (10% fetal calf serum) at 37° C. in an atmosphere of 5% CO2 and 95% air for 3 hours. […] Then, the cells were lysed with 0.2N NaOH, and radioactivity taken up by the cells was measured using a gamma counter. After completion of the radioactivity measurement, the amount of proteins contained in the cell lysate was measured using BCA Protein Assay Kit (produced by Pierce), and the ^99mTc-DMS uptake per unit protein mass (% dose/mg protein) was obtained. […]

osteoclast [1] = assay: Uptake by osteoclast (cellular uptake experiment); assay type: cell-based, mouse
Text: as §1
Experiment of uptake by cells: The osteoblast or the co-cultured osteoclast was isolated using 35% Percoll and incubated using α-MEM (10% fetal calf serum) at 37° C. in an atmosphere of 5% CO2 and 95% air for 3 hours. The incubated cells were washed with an incubation buffer of pH 7.4 (10 mM HEPES, 5 mM glucose, 150 mM NaCl, 5 mM KCl, 1.8 mM MgSO4, 1 mM CaCl2) three times, and pre-incubated using the same buffer at 37° C. for 30 minutes. Then, the cells in incubation buffer containing ^99mTc(V)-DMS at a concentration of 129.5 kBq/mL were allowed to infiltrate, and washed with the ice-cooled incubation buffer three times, 5, 10, 30 and 60 minutes later. Then, the cells were lysed with 0.2N NaOH, and radioactivity taken up by the cells was measured using a gamma counter. After completion of the radioactivity measurement, the amount of proteins contained in the cell lysate was measured using BCA Protein Assay Kit (produced by Pierce), and the ^99mTc-DMS uptake per unit protein mass (% dose/mg protein) was obtained. As to ^99mTc-HMDP, a similar experiment was carried out for comparison.
In the method described in Example 2, the pH of the incubation buffer was set at 6.2, 6.6, 7.0, 7.4, 7.8 or 8.2, and the incubation time for ^99mTc(V)-DMS uptake was set at 10 minutes, to examine the effect of pH on the uptake of ^99mTc(V)-DMS by osteoclast and osteoblast. […]

[2] = test system: Na^+-dependent phosphate transporter; assay: Participation of sodium ion-dependent phosphate transporter in uptake by osteoclast (phosphate anion, PFA, Na+, pH and cation effects); assay type: cell-based, mouse; settings: varied [Pi], PFA 1 or 5 mM, cations, compared with K2H^32PO4, FIGS. 6 through 10
Protocol: In the method described in Example 2, an incubation buffer of pH 7.4 was used for pre-incubation, and the buffer containing ^99mTc(V)-DMS was an incubation buffer of pH 7.4 with the phosphate anion concentration ([Pi]) adjusted to 0 mM, 0.05 mM, 0.1 mM, 0.5 mM, 1.0 mM or 5.0 mM, while the incubation time was set at 5 minutes, to measure the uptake of ^99mTc(V)-DMS by osteoclast.
Furthermore, a similar experiment was carried out except that the buffer containing ^99mTc(V)-DMS was an incubation buffer of pH 7.4 containing 1 mM or 5 mM of phosphonoformic acid (PFA) which was a sodium ion-dependent phosphate transporter inhibitor.
Moreover, a similar experiment was carried out except that the buffer containing ^99mTc(V)-DMS was an incubation buffer of pH 7.4 with the sodium ion concentration ([Na^+]) adjusted in a range from 0.1 mM to 150 mM, and the incubation time for ^99mTc(V)-DMS uptake was set at 30 seconds, to measure the uptake of ^99mTc(V)-DMS into osteoclast.
In the method described in Example 2, the pH of the incubation buffer was set at 6.2, 6.6, 7.0, 7.4, 7.8 or 8.2, and the incubation time for ^99mTc(V)-DMS uptake was set at 30 seconds, to examine effct of pH on the uptake of ^99mTc(V)-DMS into osteoclast. A similar experiment was carried out for K2H^32PO4, to compare the behaviors of ^99mTc(V)-DMS and K2H^32PO4. […]

osteoclast [3] = assay: Autoradiography of rat knee joint compared with osteoclast/osteoblast marker staining; assay type: in vivo, Wistar male rat; settings: inferred from ^186Re(V)-DMS autoradiography in rat knee joint
Protocol: ^99mTc is unsuitable for autoradiography since it has a half life of 6 hours and is a gamma ray-emitting nuclide. Considering this, a radioisotope of Re that is a homologous element of Tc was used to evaluate the in vivo accumulation of ^99mTc(V)-DMS in osteoclast.
^186Re(V)-DMS prepared according to a method described by Horiuchi et al. (Nucl. Med. Biol. 26: 771-779 (1999)) was administered in an amount of 370 kBq to a Wistar male rat, and the rat was sacrificed 3 hours later. Knee joints were extracted, and 30 μm thick specimens were prepared and autoradiographed. Furthermore, from the same regions, 20 μm thick specimens were prepared and the tartaric acid-resistant acidic phosphatase as an osteoclast marker or the alkaline phosphatase as an osteoblast marker was detected by means of staining. The results of the autoradiography and staining were compared to evaluate the accumulation of ^99mTc(V)-DMS in osteoclast.

Q: For “^99mTc(V)-dimercaptosuccinic acid [^99mTc(V)-DMS]”, which “effect of pH on the cellular uptake by osteoblast” value (osteoblast; pH 6.2 to 8.2, incubation time 10 minutes, FIG. 3) is on record?
A: does not show any significant difference

Q: And the “cellular uptake by osteoblast (uptake per unit protein mass)” value (osteoblast; time course 5, 10, 30 and 60 minutes, incubation buffer pH 7.4, 37° C., FIG. 1)?
A: taken up by osteoblastic cells in an amount smaller than ^99mTc-HMDP

Q: What about the “effect of pH on the cellular uptake by osteoclast” value (osteoclast [1]; pH 6.2 to 8.2, incubation time 10 minutes, FIG. 4) of the same substance?
A: remarkably increases as the pH value decreases

Q: What about the “effect of incubation modality (extracellular pH) on the cellular uptake by osteoclast” value (osteoclast [1]; pH of buffers for both pre-incubation and uptake 6.2, versus 7.4/6.2 and 7.4/7.4, 10 minutes, FIG. 5) of the same substance?
A: the uptake of ^99mTc(V)-DMS rises

Q: What about the “cellular uptake by osteoclast (uptake per unit protein mass)” value (osteoclast [1]; time course 5, 10, 30 and 60 minutes, incubation buffer pH 7.4, 37° C., FIG. 2) of the same substance?
A: taken up by osteoclastic cells in an especially large amount

Q: And the “route of uptake by osteoclast” value [2]?
A: taken up by osteoclast through the Na^+-dependent phosphate transporter

Q: What about the “accumulation in osteoclast in vivo, inferred from ^186Re(V)-DMS surrogate” value (osteoclast [3]) of the same substance?
A: accumulation of ^99mTc(V)-DMS in osteoclast is specific
